Assay results taken from patent US8153410B2, “Alternate morpheein forms of allosteric proteins as a target for the development of bioactive molecules” (Fox Chase Cancer Center, priority 2003, dated 2012).
pIC50: −log10 of the molar value. Read-outs that look alike come from different tables or passages of the source.

Columns and labels:
human PBGS [1] = target: T1, human PBGS (Homo sapiens, UniProt P13716); assay: human PBGS activity assay with morphlock-1; format: biochemical
T1 sequence (P13716 1-330): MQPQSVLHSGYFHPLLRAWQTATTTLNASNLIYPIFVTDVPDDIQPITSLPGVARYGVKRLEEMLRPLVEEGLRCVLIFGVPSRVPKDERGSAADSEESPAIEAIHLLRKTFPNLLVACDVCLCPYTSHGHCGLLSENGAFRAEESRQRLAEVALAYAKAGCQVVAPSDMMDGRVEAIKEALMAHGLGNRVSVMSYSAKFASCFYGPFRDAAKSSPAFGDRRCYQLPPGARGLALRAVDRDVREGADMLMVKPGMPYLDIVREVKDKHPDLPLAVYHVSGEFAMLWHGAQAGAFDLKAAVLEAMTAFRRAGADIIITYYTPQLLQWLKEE
Procedure: (§1) FIG. 33 illustrates the species-specific effects of morphlock-1 on PBGS—FIG. 33(a) Dose-response curves showing morphlock-1 inhibition of pea PBGS at 1 μg/ml (∘) and human PBGS at 0.6 μg/ml (Δ) and 10 μg/ml (□). The proteins were incubated in the presence of 10× inhibitor for 30 minutes at 37° C. prior to assay. The concentrations on the X-axis represent the final concentration of morphlock-1 in the assay. FIG. 33(b). The IC50 for morphlock-1 is a function of pea PBGS concentration. IC50 values were determined as per part (a) using the noted concentrations of pea PBGS. (c) Native PAGE evaluation of the effect of morphlock-1 on the quaternary structure equilibria of PBGS (˜1 mg/ml) from D. melanogaster, P. aeruginosa, V. cholerae, and H. sapiens. Note that the charge/mass ratio is not the same for PBGS from different species.
(§2) The putative morphlock-1 binding site is phylogenetically variable (see below). As such, morphlock-1 would not be expected to inhibit human PBGS. The effect of morphlock-1 on the activity of human PBGS was also determined at the midpoint of the protein concentration-dependent specific activity. […] To further establish the species-selectivity of morphlock-1, the gel shift assay was also carried out for PBGS from P. aeruginosa, and V. cholerae.

human PBGS [2] = target: T1, human PBGS; assay: native PAGE gel shift of human PBGS; format: biochemical, H. sapiens
Procedure: as §1, §2

P. aeruginosa PBGS = P. aeruginosa PBGS (Pseudomonas aeruginosa, UniProt Q59643); assay: native PAGE gel shift of P. aeruginosa PBGS; format: biochemical; conditions: P. aeruginosa PBGS ~1 mg/ml
Procedure: as §1, §2

V. cholerae PBGS = assay: native PAGE gel shift of V. cholerae PBGS; format: biochemical; conditions: V. cholerae PBGS ~1 mg/ml
Procedure: as §1, §2

pea PBGS = target: T2, pea PBGS (Pisum sativum, UniProt P30124); assay: pea PBGS activity assay (inhibition, protein concentration dependent specific activity); format: biochemical; set-up: made in house
T2 sequence (P30124 69-398 limits assumed): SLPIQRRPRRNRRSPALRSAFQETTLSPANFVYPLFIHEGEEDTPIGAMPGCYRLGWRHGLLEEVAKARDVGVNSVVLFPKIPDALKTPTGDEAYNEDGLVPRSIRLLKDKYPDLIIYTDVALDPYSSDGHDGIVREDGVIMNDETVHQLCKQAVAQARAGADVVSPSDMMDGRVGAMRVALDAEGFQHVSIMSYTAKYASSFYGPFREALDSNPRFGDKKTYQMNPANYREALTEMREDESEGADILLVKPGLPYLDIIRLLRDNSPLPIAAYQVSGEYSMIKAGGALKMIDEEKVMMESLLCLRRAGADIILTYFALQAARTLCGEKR
Procedure: FIG. 32(a) The inhibitor morphlock-1 is illustrated as posed by Glide. The subunits A, B, and E are illustrated as ribbon diagram. Morphlock-1 is shown with carbon atoms and illustrated as ball and stick. FIG. 32(b) The chemical structure of morphlock-1. […] Pea PBGS was incubated with various concentrations of morphlock-1 (in a DMSO solution). Each concentration of morphlock-1 with a fixed amount of DMSO was incubated with protein for 30 minutes at 37° C. prior to resolution on 12.5% polyacrylamide native PhastGels. […] (d) The protein concentration dependence of pea PBGS specific activity is illustrated. […] The final concentration of morphlock-1 in the inhibited assay was 5 μM, and the concentration of PBGS in the inhibited and control assays ranged from 0.05-50 μg/mL (0.014-1.4 μM).
as §1, with “The” for “FIG. 33 illustrates the species-specific effects of morphlock-1 on PBGS—FIG. 33(a) Dose-response curves showing morphlock-1 inhibition of pea PBGS at 1 μg/ml (∘) and human PBGS at 0.6 μg/ml (Δ) and 10 μg/ml (□). The”, “The IC50 for morphlock-1 is a function of pea PBGS concentration.” left out
The dose response curve for morphlock-1 inhibition of pea PBGS (FIG. 37a) was initially carried out at 0.03 μM pea PBGS, where the hexamer is a significant component of the equilibrium mixture; the morphlock-1 concentration was varied from 0.1 μM to 0.1 mM.
The dose response curve for morphlock-1 inhibition of pea PBGS (FIG. 33(a)) was initially carried out at 0.03 μM pea PBGS, where the hexamer is a significant component of the equilibrium, in order to optimize the observed inhibition; the morphlock-1 concentration was varied from 0.1 μM to 0.1 mM.

P. aeruginosa PBGS, sequence (Q59643 whole entry): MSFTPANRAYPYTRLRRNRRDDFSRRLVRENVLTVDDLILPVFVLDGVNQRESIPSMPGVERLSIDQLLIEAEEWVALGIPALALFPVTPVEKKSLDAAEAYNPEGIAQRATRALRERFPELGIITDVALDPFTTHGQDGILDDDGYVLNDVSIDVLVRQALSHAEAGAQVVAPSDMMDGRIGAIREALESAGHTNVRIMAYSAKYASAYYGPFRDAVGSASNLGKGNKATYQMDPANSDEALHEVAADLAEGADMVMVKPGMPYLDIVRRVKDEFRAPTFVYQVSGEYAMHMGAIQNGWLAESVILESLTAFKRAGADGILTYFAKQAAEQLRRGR

In the case of `O=C1Nc2ccc(S(=O)(=O)NCC(O)c3ccc([N+](=O)[O-])cc3)c3cccc1c23` (centres unmarked) [morphlock-1, 2-oxo-1,2-dihydro-benzo(cd)indole-6-sulfonic acid[2-hydroxy-2-(4-nitro-phenyl)-ethyl]-amide], the “effect on the protein concentration-dependent specific activity for human PBGS” value (human PBGS [1]; 5 μM morphlock-1) was “has no affect”, the “inhibition of human PBGS activity” value (human PBGS [1]; midpoint of the protein concentration-dependent specific activity) was “does not inhibit human PBGS” and the “effect on mobility of human PBGS on native PAGE gel” value (human PBGS [2]) was “nor does it effect the mobility of human PBGS”. For the same compound, the “perturbation of the quaternary structure equilibrium, gel shift assay” value (P. aeruginosa PBGS) was “did not cause any perturbation of the quaternary structure equilibrium”, the “perturbation of the quaternary structure equilibrium, gel shift assay” value (V. cholerae PBGS) was “did not cause any perturbation of the quaternary structure equilibrium” and the pIC50 (pea PBGS; 0.03 μM pea PBGS, morphlock-1 0.1 μM to 0.1 mM, 30 minutes at 37° C. prior to assay, read-out: apparent IC50 of morphlock-1 inhibition of pea PBGS) was 5.92. The pIC50 (pea PBGS; low protein concentration, activity assays, read-out: IC50 by kinetic analysis / activity assays (and native PAGE with more sensitive staining)) was ~6.00 and the “K(0.5) of the protein concentration dependent specific activity in the presence of morphlock-1” value (pea PBGS; morphlock-1 set at 5 μM, K(0.5) without morphlock-1 0.064 μM) was 0.134 µM.
